These results are taken from patent US20070135515A1, “Method for producing sorbicillactone a” (priority 2004, published 2007).

The test system of the experiment is neuronal cells. The experiment is described as follows: Intracellular calcium level [Ca2+]i in primary neurons (Fura-2 fluorescence ratio 340/380 nm). The experiment is classed as cell-based, rat. The source says:
Material: The same materials as described in Perovic et al. (1998, Mech. Ageing Dev. 101:1-19) were used. Fura-2-acetoxymethylester (Fura-2-AM) was obtained from Molecular Probes (Leiden, The Netherlands), Dulbecco's modified Eagle's Medium with 4.5 g/L glucose (DMEM/HG), L-glutamic acid (L-Glu), and serotonin (5-HT) from Sigma-Aldrich (Taufkirchen, Germany) and the antibodies mouse-anti-neurofilament (68 kDa) and mouse-anti-glial-fibrillary-acidic-protein (GFAP) from Roche Diagnostics (Mannheim, Germany). Sorbicillactone A of the batch: 2208/2a was used.
Primary neurons: The cortical cell culture was produced from the brains of 17-18 day-old rat embryos, according to a modified procedure [Freshney (1987) Culture of specific cell types. In: Culture of Animal Cells. A Manual of Basic Technique, A. R. Liss, New York, S. 257-288; Perovic et al. (1994) Eur. J. Pharmacol. (Mol. Pharmacol. Sec.) 288:27-33]. After the isolation, the cerebral-hemispheres were put into Hank's Balanced Salt Solution (HBSS) without Ca^2+ and Mg^2+, and the neuronal cells were subsequently dissociated in HBSS using 0.025% (w/v) trypsin (10 min.; 37° C.). The proteolytic reaction was stopped with 10% (v/v) foetal calf serum (FCS). The single-cell suspensions were centrifuged, and the resulting pellet was taken up into Dulbecco's modified Eagles's Medium with 4.5 g/L glucose (DMEM/HG) (contains 2 mM L-glutamine, 100 mU/L insulin, and 10% (v/v) FCS). The cells were plated in a chamber with poly-L-lysine (5 μg/mL, 300 μl/cm^2) in a cell density of 2.0×10^5 cells/cm^2. After two days the DMEM/HG/10%-FCS-medium was removed and replaced with DMEM/HG/serum-free medium. Two weeks after the isolation, the immune staining took place with anti-neurofilament (68 kDa) as a marker for neurons, and anti-GFAP as a marker for glial cells. The cultures contained >80% neurons; the residual 20% were GFAP-positive cells, mainly astrocytes (Ushijima et al. (1995) Eur. J. Neurosci. 7:1353-9). The neurons were held in an atmosphere of 95% air and 5% CO2 at 37° C.
Loading of neurons with Fura-2-AM: The intracellular Ca^2+-concentration ([Ca^2+]i) was determined by fluorescence measurements. The ratio of the absorption of the Ca^2+-indicator dye Fura-2-AM at 340 and 380 nm (Grynkiewicz et al. (1985) J. Biol. Chem. 260:3440-50) was decisive. The neurons were loaded with 6 μM Fura-2-AM in DMEM/HG/serum-free medium (supplemented with 1% (w/v) bovine serum albumin) at 37° C. for 60 min. After incubation, the cells were washed two times with medium, and further incubated for 45 min at 37° C.
Calcium-calibration curve: A calcium-calibration curve was produced according to the methods of Grynkiewicz et al. (1985, J. Biol. Chem. 260:3440-50). Fluorescence pictures were obtained for each buffer at 340 and 380 nm. The quotient from both fluorescence spectra (340/380 nm) was calculated, and depicted as a calibration curve. The quotient (340/380 nm [ratio-value]) of 1.0 corresponds to 228 nM [Ca^2+]i.
Changes of the calcium level in neurons: In all experimental settings, the cells were first loaded with Fura-2-AM, and subsequently stimulated with different substances (in Locke's solution; 154 mM NaCl; 5.6 mM KCl; 3.6 mM NaHCO3; 5.6 mM glucose, and 10 mM Hepes; pH 7.4; without CaCl2). Sorbicillactone A was dissolved in a concentration of 10 mg/mL in 100% (v/v) DMSO, and stored at −20° C. In the first setting, the neurons were stimulated for 5 min with 0.1% (v/v) DMSO (control); after 10 min 200 μM L-glutamic acid (L-Glu), 200 μM serotonin (5-HT), and 2.5 mM CaCl2 were added to the cells. In a second setting, the effect of L-Glu, 5-HT, and 2.5 mM CaCl2 on the calcium level of pre-incubated neurons (each 5 min with 10 μg/mL sorbicillactone A) was tested. In all experiments, the [Ca^2+]i-level was measured for at least 20-25 min. […]

As to `C/C=C/C=C/C(O)=C1/C(=O)C(C)=C(O)[C@@]2(C)OC(=O)[C@@](C)(NC(=O)/C=C/C(=O)O)[C@@H]12` [sorbicillactone A], the “effect on [Ca2+]i in neuronal cells” value (10 μg/mL sorbicillactone A alone) is on record as “nearly no effect”. Further, where the note is “pre-incubation 5 min with 10 μg/mL, then 200 μM L-Glu and 2.5 mM CaCl2, p<0.001, FIG. 1A”, the “reduction in the [Ca2+]i-level” value is given as 46.7%. For the same compound, the “reduction of the free calcium concentration compared to the control” value (pre-incubation with 10 μg/mL, then 200 μM 5-HT and 2.5 mM CaCl2, FIG. 1B) is on record as 77.6%.
